# Values of other authors, collected in patent US20040115263A1, “Use of bupropion for treating restless legs syndrome” (priority 2002, published 2004).
# Experiments:
# [1] = RLS patients
"cases in which augmentation is a complicating feature (human, in vivo)",Compound,side effects reported [1],"efficacy in treating RLS (L-dopa given with a peripheral carboxylase inhibitor at a 10:1 ratio, patients)"
–,CC(C)C[C@H]1C(=O)N2CCC[C@H]2[C@]2(O)O[C@](NC(=O)[C@@H]3C=C4c5cccc6[nH]c(Br)c(c56)C[C@H]4N(C)C3)(C(C)C)C(=O)N12 [Bromocriptine],transient nasal stuffiness and lightheadedness in one patient,–
65-80%,N[C@@H](Cc1ccc(O)c(O)c1)C(=O)O [L-dopa],–,effective
